US6900223B2, “Dihydrodipyrazolopyridinone inhibitors of B7-1” (Wyeth, priority 2002, dated 2005)

target: T1, B7-1/CD28 binding (Homo sapiens, UniProt P33681); assay: CD28/B7-1 ELISA (B7-1/CD28 binding inhibition); details: CD28-Fc coated wells, B7-1-Fc-biotin/streptavidin-alkaline phosphatase detection complex, 1% DMSO
T1 sequence (P33681 35-242 limits assumed): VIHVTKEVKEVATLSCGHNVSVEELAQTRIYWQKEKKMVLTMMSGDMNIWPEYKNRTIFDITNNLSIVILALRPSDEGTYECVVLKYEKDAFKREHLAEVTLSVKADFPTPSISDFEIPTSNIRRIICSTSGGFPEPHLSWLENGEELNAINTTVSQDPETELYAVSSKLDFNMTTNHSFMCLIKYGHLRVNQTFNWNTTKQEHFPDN
Experimental: Evaluation of B7-1/CD28 Binding Inhibition for Test Compounds
Wells are coated with 300 ng CD28-Fc in carbonate buffer (pH 9.4) overnight at 4° C., blocked with 1% bovine serum albumin in tris-buffered saline (TBS) for 1 h at 22° C. and washed 3 times in TBS prior to assay. The detection complex is formed as follows: B7-1-Fc-biotin, prepared using NHS-LC-biotin (Pierce #21335) according to the manufacturers instructions (4.1 moles biotin/mole Fc), is added at 0.8 ug/ml to streptavidin-alkaline phosphatase (Caltag Sa1008 at 1:1000 in TBS. Gradient dilutions of test compound in dimethylsulfoxide (1% final) are added to this complex and incubated 30 min. at 22° C. Detection complex (+/−inhibitors) is then added to the CD28 coated wells for 25 min. at 22° C., washed 5 times with TBS, developed with the calorimetric substrate pNPP (Pierce #34045) in diethanolamine/MgCl2 buffer (pH 9.5) and read at 405 nm. The inhibition constant (IC50) is calculated by subtracting background binding and comparing to uninhibited (DMSO alone) controls. The inhibition constant represents the concentration of test compound required to achieve 50% inhibition.

| IC50 [nM] | SMILES |
| --- | --- |
| 7 | Cn1ncc2c3[nH]n(-c4ccc(Cl)c(C(=O)O)c4)c(=O)c3c(-c3cccc(C(F)(F)F)c3)nc21 [Example 25] |
| 400 | Cn1ncc2c3[nH]n(-c4ccccc4F)c(=O)c3c(-c3cccc(C(F)(F)F)c3)nc21 [Example 41] |
| 50 | Cn1ncc2c3[nH]n(-c4ccc(F)cc4)c(=O)c3c(-c3cccc(C(F)(F)F)c3)nc21 [Example 39] |
| 1900 | Cn1ncc2c3[nH]n(-c4cccc(F)c4)c(=O)c3c(-c3cccc(S(C)(=O)=O)c3)nc21 [Example 55] |
| 900 | Cn1ncc2c3[nH]n(-c4ccc(C(C)(C)C)cc4)c(=O)c3c(-c3cccc(C(F)(F)F)c3)nc21 [Example 42] |
| 9 | COC(=O)c1ccc(-n2[nH]c3c(c(-c4cccc(Br)c4)nc4c3cnn4C)c2=O)cc1Cl [Example 31] |
| 190 | Cn1ncc2c3[nH]n(-c4ccc(C(=O)O)cc4)c(=O)c3c(-c3cccc(C(F)(F)F)c3)nc21 [Example 33] |
| 41 | COC(=O)c1ccc(-n2[nH]c3c(c(-c4cccc(C(F)(F)F)c4)nc4c3cnn4C)c2=O)cc1Cl [Example 29] |
| 20 | Cn1ncc2c3[nH]n(-c4cccc(F)c4)c(=O)c3c(-c3cncc(Br)c3)nc21 [Example 4, 4-(5-Bromo-3-pyridinyl)-2-(3-fluorophenyl)-6-methyl-1,6-dihydrodipyrazalo[3,4-b:3,4-d]pyridin-3(2H)-one] |
| 1500 | Cn1ncc2c3[nH]n(-c4cccc(F)c4)c(=O)c3c(-c3cccc(C(N)=O)c3)nc21 [Example 54] |
| 100 | Cn1ncc2c3[nH]n(-c4ccc([N+](=O)[O-])cc4)c(=O)c3c(-c3cccc(C(F)(F)F)c3)nc21 [Example 40] |
| 400 | Cn1ncc2c3[nH]n(-c4ccccn4)c(=O)c3c(-c3cncc(Br)c3)nc21 [Example 9] |
| 50 | Cn1ncc2c3[nH]n(-c4ccc(F)cc4)c(=O)c3c(-c3cccc([N+](=O)[O-])c3)nc21 [Example 46] |
| 25 | Cn1ncc2c3[nH]n(-c4ccc(OCc5ccccc5)cc4)c(=O)c3c(-c3cccc(C(F)(F)F)c3)nc21 [Example 58] |
| 150 | Cc1cccc(-c2nc3c(cnn3C)c3[nH]n(-c4ccccn4)c(=O)c23)c1 [Example 10] |
| 70 | Cn1ncc2c3[nH]n(-c4cccc(F)c4)c(=O)c3c(-c3cccc(C(=O)O)c3)nc21 [Example 60] |
| 20 | Cn1ncc2c3[nH]n(-c4cccc(F)c4)c(=O)c3c(-c3cccc(C(F)(F)F)c3)nc21 [Example 43] |
| 50 | O=c1c2c(-c3cccc(C(F)(F)F)c3)nc3[nH]ncc3c2[nH]n1-c1ccc(F)cc1 [Example 65] |
| 40 | Cn1ncc2c3[nH]n(-c4cccc(F)c4)c(=O)c3c(-c3cc(Cl)cc(Cl)c3)nc21 [Example 73, 4-(3,5-Dichlorophenyl)-2-(3-fluorophenyl)-6-methyl-1,6-dihydrodypyrazolo[3,4-b:3′,4′-d]pyridin-3(2H)-one] |
| 70 | Cn1ncc2c3[nH]n(-c4ccccn4)c(=O)c3c(-c3cccc(Br)c3)nc21 [Example 13] |

| IC50 [nM] | SMILES |
| --- | --- |
| 800 | O=c1c2c(-c3cccc(C(F)(F)F)c3)nc3c(cnn3CCO)c2[nH]n1-c1ccc(F)cc1 [Example 66] |
| 1700 | Cc1csc(C(=O)O)c1-n1[nH]c2c(c(-c3cccc(C(F)(F)F)c3)nc3c2cnn3C)c1=O [Example 52] |
| 105 | Cn1ncc2c3[nH]n(-c4cccc(F)c4)c(=O)c3c(-c3ccsc3)nc21 [Example 74] |
| 12 | COC(=O)c1ccc(-n2[nH]c3c(c(-c4cccc(C(F)(F)F)c4)nc4c3cnn4C)c2=O)cc1F [Example 37] |
| 90 | CCCn1ncc2c3[nH]n(-c4ccc(F)cc4)c(=O)c3c(-c3cccc(C(F)(F)F)c3)nc21 [Example 68] |
| 70 | Cn1ncc2c3[nH]n(-c4ccc(F)c(C(=O)O)c4)c(=O)c3c(-c3cccc(C(F)(F)F)c3)nc21 [Example 36] |
| 1800 | Cn1ncc2c3[nH]n(-c4ccc(Cl)cc4)c(=O)c3c(-c3ccccc3)nc21 [Example 6] |
| 20 | Cn1ncc2c3[nH]n(-c4cccc(OCc5ccccc5)c4)c(=O)c3c(-c3cccc(C(F)(F)F)c3)nc21 [Example 59] |
| 30 | Cn1ncc2c3[nH]n(-c4cccc(F)c4)c(=O)c3c(-c3cccc(C#N)c3)nc21 [Example 53] |
| 70 | O=c1c2c(-c3cccc(C(F)(F)F)c3)nc3c(cnn3Cc3ccccc3)c2[nH]n1-c1ccc(F)cc1 [Example 64] |
| 330 | Cn1ncc2c3[nH]n(-c4cccc(F)c4)c(=O)c3c(-c3cccc([S+](C)[O-])c3)nc21 (stereo not shown) [Example 56] |
| 8 | COC(=O)c1cccc(-n2[nH]c3c(c(-c4cccc(C(F)(F)F)c4)nc4c3cnn4C)c2=O)c1 [Example 22] |
| 4 | Cn1ncc2c3[nH]n(-c4cccc(F)c4)c(=O)c3c(-c3cccc([N+](=O)[O-])c3)nc21 [Example 50] |
| 188 | CC1CN(c2nc3c(cnn3C)c3[nH]n(-c4cccc(F)c4)c(=O)c23)CC(C)O1 (stereo not shown) [Example 81, 4-(2,6-Dimethyl-4-morpholinyl)-2-(3-fluorophenyl)-6-methyl-1,6-dihydrodipyrazolo[3,4-b:3′-4′-d]pyridin-3(2H)-one] |
| 190 | Cc1cc(-n2[nH]c3c(c(-c4cccc(Br)c4)nc4c3cnn4C)c2=O)cc(C(F)(F)F)c1 [Example 12] |
| 1000 | Cn1ncc2c3[nH]n(-c4ccc(F)cc4F)c(=O)c3c(-c3cccc(C(F)(F)F)c3)nc21 [Example 44] |
| 50 | Cn1ncc2c3[nH]n(-c4ccc(N)cc4)c(=O)c3c(-c3cccc(C(F)(F)F)c3)nc21 [Example 48] |
| 2100 | CCOC(=O)c1scc(C)c1-n1[nH]c2c(c(-c3cccc(C(F)(F)F)c3)nc3c2cnn3C)c1=O [Example 51] |
| 50 | Cn1ncc2c3[nH]n(-c4ccc(I)cc4)c(=O)c3c(-c3cccc(C(F)(F)F)c3)nc21 [Example 16] |
| 200 | Cn1ncc2c3[nH]n(-c4ccc(F)cc4)c(=O)c3c(-c3cncc(Br)c3)nc21 [Example 8] |

| IC50 [nM] | SMILES |
| --- | --- |
| 12 | Cn1ncc2c3[nH]n(-c4ccc([N+](=O)[O-])cc4)c(=O)c3c(-c3cccc(Br)c3)nc21 [Example 18] |
| 1200 | Cn1ncc2c3[nH]n(-c4nccc(C(F)(F)F)n4)c(=O)c3c(-c3cccc(C(F)(F)F)c3)nc21 [Example 45] |
| 48 | Cn1ncc2c3[nH]n(-c4cccc(C(=O)O)c4)c(=O)c3c(-c3cccc(C(F)(F)F)c3)nc21 [Example 21] |
| 400 | Cn1ncc2c3[nH]n(-c4ccc(F)cc4)c(=O)c3c(-c3cccc(N)c3)nc21 [Example 47] |
| 120 | COC(=O)c1cc(-n2[nH]c3c(c(-c4cccc(C(F)(F)F)c4)nc4c3cnn4C)c2=O)ccc1Cl [Example 26] |
| 82 | COc1cccc(-c2nc3c(cnn3C)c3[nH]n(-c4cccc(F)c4)c(=O)c23)c1 [Example 75] |
| 9 | Cn1ncc2c3[nH]n(-c4ccc(C(=O)O)c(Cl)c4)c(=O)c3c(-c3cccc(Br)c3)nc21 [Example 32] |
| 66 | Cc1cc(C)cc(-n2[nH]c3c(c(-c4cccc(C(F)(F)F)c4)nc4c3cnn4C)c2=O)c1 [Example 20] |
| 98 | COC(=O)c1cc(-n2[nH]c3c(c(-c4cccc(C(F)(F)F)c4)nc4c3cnn4C)c2=O)ccc1F [Example 35] |
| 295 | Cn1ncc2c3[nH]n(-c4cccc(F)c4)c(=O)c3c(-c3ccc4c(c3)OCO4)nc21 [Example 76] |
| 72 | Cn1ncc2c3[nH]n(-c4ccc(=O)[nH]n4)c(=O)c3c(-c3cccc(C(F)(F)F)c3)nc21 [Example 24] |
| 210 | Cn1ncc2c3[nH]n(-c4ccc(C(=O)O)c(F)c4)c(=O)c3c(-c3cccc(C(F)(F)F)c3)nc21 [Example 38] |
| 170 | CCOC(=O)c1cccc(-n2[nH]c3c(c(-c4cccc(C(F)(F)F)c4)nc4c3cnn4C)c2=O)c1 [Example 28] |
| 780 | CCn1ncc2c3[nH]n(-c4ccc(F)cc4)c(=O)c3c(-c3cccc(C(F)(F)F)c3)nc21 [Example 67] |
| 31 | COC(=O)c1ccc(-n2[nH]c3c(c(-c4cccc(C(F)(F)F)c4)nc4c3cnn4C)c2=O)cc1 [Example 34] |
| 750 | O=c1c2c(-c3cccc(C(F)(F)F)c3)nc3c(cnn3-c3ccccc3)c2[nH]n1-c1cccc(F)c1 [Example 7] |
| 990 | Cc1cccc(-c2nc3c(cnn3C)c3[nH]n(-c4cc(C)cc(C)c4)c(=O)c23)c1 [Example 19] |
| 290 | CCOc1ccc(-n2[nH]c3c(c(-c4cccc(C(F)(F)F)c4)nc4c3cnn4C)c2=O)nn1 [Example 23] |
| 16 | Cn1ncc2c3[nH]n(-c4ccc(C(=O)O)c(Cl)c4)c(=O)c3c(-c3cccc(C(F)(F)F)c3)nc21 [Example 30] |
| 58 | Cc1cc(C)cc(-n2[nH]c3c(c(-c4cccc(Br)c4)nc4c3cnn4C)c2=O)c1 [Example 17] |

| SMILES | IC50 [nM] |
| --- | --- |
| Cn1ncc2c3[nH]n(-c4ccc(-c5ccccc5)cc4)c(=O)c3c(-c3cccc(C(F)(F)F)c3)nc21 [Example 57] | 39 |
